# Experimental data published in ChEMBL document CHEMBL2331162, “Biophysical fragment screening of the β1-adrenergic receptor: identification of high affinity arylpiperazine leads using structure-based drug design” (J Med Chem, 2013).
# The source made the active and inactive calls. No cut-off for these calls is given here.
# Legend:
# [1] = biological target: Beta-1 adrenergic receptor (Homo sapiens, UniProt P08588); experiment: Displacement of [3H]dihydroalprenolol from human wild type beta1 adrenergic receptor expressed in HEK293 cell membranes after 90 mins by liquid scintillation counting analysis
# [2] = biological target: T1, Muscarinic acetylcholine receptor M2 (Homo sapiens, UniProt P08172); experiment: Displacement of [3H]-NMS from recombinant muscarinic M2 receptor (unknown origin) expressed in CHOK1 cells after 60 mins by liquid scintillation counting analysis; type: cell-based, CHO-K1
# T1 sequence (P08172 whole entry): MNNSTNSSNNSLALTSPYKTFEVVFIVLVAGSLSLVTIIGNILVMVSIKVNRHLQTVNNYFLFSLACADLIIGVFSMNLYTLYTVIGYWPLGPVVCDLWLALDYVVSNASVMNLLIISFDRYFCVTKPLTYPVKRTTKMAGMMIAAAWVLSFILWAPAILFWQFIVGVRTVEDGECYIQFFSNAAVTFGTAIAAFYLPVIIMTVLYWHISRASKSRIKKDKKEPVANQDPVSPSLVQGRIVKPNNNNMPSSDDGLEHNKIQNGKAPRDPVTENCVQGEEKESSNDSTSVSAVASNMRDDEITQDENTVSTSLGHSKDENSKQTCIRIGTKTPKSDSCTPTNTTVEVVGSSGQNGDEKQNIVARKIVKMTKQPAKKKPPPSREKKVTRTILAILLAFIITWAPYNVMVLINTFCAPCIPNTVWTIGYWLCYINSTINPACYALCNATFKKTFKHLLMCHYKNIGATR
# [3] = biological target: T2, Muscarinic acetylcholine receptor M3 (Homo sapiens, UniProt P20309); experiment: Agonist activity at human muscarinic M3 receptor expressed in CHO cells assessed as stimulation of ERK1/2 phosphorylation after 15 mins by Alphascreen Surefire assay; type: cell-based
# Target sequence in this assay (P20309 whole entry, looked up): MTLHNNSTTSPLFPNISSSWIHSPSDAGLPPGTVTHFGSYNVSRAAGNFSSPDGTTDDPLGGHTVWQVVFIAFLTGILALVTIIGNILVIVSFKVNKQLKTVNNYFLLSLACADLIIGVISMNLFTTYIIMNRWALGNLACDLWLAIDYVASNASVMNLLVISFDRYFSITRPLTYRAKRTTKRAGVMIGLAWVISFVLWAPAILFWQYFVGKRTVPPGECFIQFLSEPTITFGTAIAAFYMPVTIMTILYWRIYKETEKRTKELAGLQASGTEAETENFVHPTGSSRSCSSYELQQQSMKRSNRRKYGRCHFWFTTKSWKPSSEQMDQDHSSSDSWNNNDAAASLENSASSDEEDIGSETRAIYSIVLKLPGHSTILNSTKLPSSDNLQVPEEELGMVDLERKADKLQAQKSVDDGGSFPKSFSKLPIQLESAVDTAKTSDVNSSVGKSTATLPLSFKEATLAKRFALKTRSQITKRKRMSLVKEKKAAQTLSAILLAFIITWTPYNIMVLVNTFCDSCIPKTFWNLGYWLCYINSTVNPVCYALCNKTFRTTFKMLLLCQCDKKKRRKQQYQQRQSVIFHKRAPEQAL
# [4] = biological target: T3, Muscarinic acetylcholine receptor M2 (Homo sapiens) (UniProt P08172); experiment: Agonist activity at human muscarinic M2 receptor expressed in CHO cells assessed as stimulation of ERK1/2 phosphorylation after 15 mins by Alphascreen Surefire assay; type: cell-based
# T3 sequence (whole entry): T1 sequence (P08172 whole entry)
# [5] = biological target: T4, Muscarinic acetylcholine receptor M4 (Homo sapiens) (UniProt P08173); experiment: Agonist activity at human muscarinic M4 receptor expressed in CHO cells assessed as stimulation of ERK1/2 phosphorylation after 15 mins by Alphascreen Surefire assay; type: cell-based
# T4 sequence (whole entry): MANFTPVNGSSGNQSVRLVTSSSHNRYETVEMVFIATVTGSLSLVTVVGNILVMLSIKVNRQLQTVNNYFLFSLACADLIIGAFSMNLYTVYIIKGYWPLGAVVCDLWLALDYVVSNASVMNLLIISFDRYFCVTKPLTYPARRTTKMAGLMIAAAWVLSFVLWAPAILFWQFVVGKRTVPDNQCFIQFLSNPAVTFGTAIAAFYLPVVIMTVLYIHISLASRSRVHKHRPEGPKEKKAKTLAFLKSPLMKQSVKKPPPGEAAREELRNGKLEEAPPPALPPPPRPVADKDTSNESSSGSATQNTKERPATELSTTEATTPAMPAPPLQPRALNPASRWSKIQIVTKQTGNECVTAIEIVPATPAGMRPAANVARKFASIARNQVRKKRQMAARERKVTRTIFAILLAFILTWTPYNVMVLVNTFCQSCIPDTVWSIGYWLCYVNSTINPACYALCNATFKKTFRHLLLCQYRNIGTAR
# [6] = biological target: T5, Muscarinic acetylcholine receptor M1 (Homo sapiens) (UniProt P11229); experiment: Agonist activity at human muscarinic M1 receptor expressed in CHO cells assessed as stimulation of ERK1/2 phosphorylation after 15 mins by Alphascreen Surefire assay; type: cell-based
# T5 sequence (whole entry): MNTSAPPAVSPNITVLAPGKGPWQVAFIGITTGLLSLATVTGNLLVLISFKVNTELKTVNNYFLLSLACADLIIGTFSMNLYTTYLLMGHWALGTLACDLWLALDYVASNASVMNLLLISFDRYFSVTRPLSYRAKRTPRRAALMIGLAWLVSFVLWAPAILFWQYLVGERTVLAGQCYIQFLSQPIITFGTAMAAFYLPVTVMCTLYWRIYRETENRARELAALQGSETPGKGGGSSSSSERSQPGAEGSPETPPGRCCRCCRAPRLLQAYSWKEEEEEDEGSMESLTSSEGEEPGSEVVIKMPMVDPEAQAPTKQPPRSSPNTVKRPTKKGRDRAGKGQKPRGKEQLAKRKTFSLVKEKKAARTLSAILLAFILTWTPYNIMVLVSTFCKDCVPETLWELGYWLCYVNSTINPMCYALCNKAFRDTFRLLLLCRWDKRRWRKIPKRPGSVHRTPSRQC
# [7] = biological target: T2, Muscarinic acetylcholine receptor M3; experiment: Displacement of [3H]-NMS from recombinant muscarinic M3 receptor (unknown origin) expressed in CHOK1 cells after 60 mins by liquid scintillation counting analysis; type: cell-based, CHO-K1
# Target sequence in this assay (P20309 whole entry): as the sequence (P20309 whole entry, looked up) above
# [8] = biological target: T6, Muscarinic acetylcholine receptor M4 (Homo sapiens, UniProt P08173); experiment: Displacement of [3H]-NMS from recombinant muscarinic M4 receptor (unknown origin) expressed in CHOK1 cells after 60 mins by liquid scintillation counting analysis; type: cell-based, CHO-K1
# T6 sequence (P08173 whole entry): T4 sequence (whole entry)
# Chain of Beta-1 adrenergic receptor (P08588 whole entry): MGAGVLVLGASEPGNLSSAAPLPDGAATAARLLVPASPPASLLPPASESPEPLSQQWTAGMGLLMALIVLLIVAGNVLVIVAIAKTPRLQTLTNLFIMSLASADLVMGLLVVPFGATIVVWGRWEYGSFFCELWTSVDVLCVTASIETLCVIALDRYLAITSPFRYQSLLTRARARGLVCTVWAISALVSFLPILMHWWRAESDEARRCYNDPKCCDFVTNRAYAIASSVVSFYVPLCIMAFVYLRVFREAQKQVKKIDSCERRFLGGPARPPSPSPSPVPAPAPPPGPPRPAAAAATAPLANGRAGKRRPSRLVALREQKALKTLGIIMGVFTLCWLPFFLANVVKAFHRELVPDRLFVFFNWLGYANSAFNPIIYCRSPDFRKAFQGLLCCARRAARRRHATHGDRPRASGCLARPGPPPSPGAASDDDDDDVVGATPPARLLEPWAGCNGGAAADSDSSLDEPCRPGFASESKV
structure (smiles),measurement,setting,value
Clc1ccc(N2CCNCC2)cc1Cl,Ki,[1],214 nM
Cc1ccc(N2CCNCC2)cc1C,Ki,[1],741 nM
Cc1nc(N2CCNCC2)c2c3c(sc2n1)CC(C)CC3 (stereo unspecified),Ki,[1],676 nM
Clc1cccc(N2CCNCC2)c1Cl,Ki,[2],> 20000 nM
same,Activity,[3],inactive
same,Activity,[4],inactive
same,Activity,[5],inactive
same,Ki,[1],107 nM
same,Activity,[6],inactive
COc1cc(OC)cc(N2CCNCC2)c1,Ki,[1],1580 nM
FC(F)(F)c1cc(N2CCNCC2)cc(C(F)(F)F)c1,Ki,[1],1260 nM
Clc1cc(Cl)cc(N2CCNCC2)c1,Activity,[3],inactive
same,Ki,[7],7940 nM
same,Activity,[4],inactive
same,Ki,[8],31600 nM
same,Activity,[5],inactive
same,Ki,[1],85.1 nM
same,Activity,[6],inactive
CSc1nc(N2CCNCC2)c2sc3c(c2n1)CCCC3,Ki,[1],200 nM
c1cc(N2CCNCC2)c2cc[nH]c2c1,Ki,[2],> 20000 nM
same,Activity,[3],inactive
same,Activity,[4],inactive
same,Activity,[5],inactive
same,Ki,[1],67.6 nM
same,Activity,[6],inactive
Cc1cc(N2CCNCC2)nc2ccccc12,Ki,[2],> 20000 nM
same,Activity,[3],inactive
same,Activity,[4],inactive
same,Activity,[5],inactive
same,Ki,[1],224 nM
same,Activity,[6],inactive
FC(F)(F)c1ccnc(N2CCNCC2)c1,Ki,[1],2340 nM
Cc1cc(N2CCNCC2)c2ccccc2n1,Ki,[1],1580 nM
FC(F)(F)c1ccnc(N2CCNCC2)n1,Ki,[1],2510 nM
c1csc(-c2cccc3ccc(N4CCNCC4)nc23)c1,Ki,[1],251 nM
Cc1cccc(N2CCNCC2)c1C,Ki,[1],537 nM
